# Laboratory results taken from patent publication US5612188A, “Automated, multicompartmental cell culture system” (Cornell Research Foundation, Inc., priority 1994, dated 1997).
# Where two headings read alike, the source gives them in different places.
# How the values were obtained:
# [1] = test system: sheep liver glutathione-S-arene oxide transferase; experiment: Km's for conjugation of GSH and naphthalene oxide, partially purified transferase; assay type: in vitro ADME; conditions: one-half of value for racemic naphthalene oxide, pH 7.4, read-out: Km for 1R, 2S-- or 1S, 2R-- NO (conjugation with GSH)
# Text: (§1) The rate of reaction of naphthalene oxide with GSH is assumed to be of the form V=Vmax*{1GSH/(GSH+Kml)}*{NO/(NO+Km2)}. […] Work with partially purified sheep liver glutathione-S-arene oxide transferase has provided Km's for conjugation of GSH and racemic naphthalene oxide at pH 7.4 (Hayakawa, T., LeMahieu, R. A., and Udenfriend, S., "Studies on Glutathione-S-arene Oxide Transferase--a Sensitive Assay", Arch. Biochem. Biophys. 162: 223-230 (1974), which is hereby incorporated by reference). Individual glutathione-S-transferase isozymes are enantioselective with respect to naphthalene oxide (O'Brien, K. A. F., Suverkropp, C., Kanekal, S., Plopper, C. G., and Buckpitt, A. R., "Tolerance to Multiple Doses of the Pulmonary Toxicant, Naphthalene", Toxicol. Appl. Pharmacol. 99: 487-500 (1989), which is hereby incorporated by reference), but GSH conjugation proceeds equally fast with 1R, 2S- and 1S, 2R-naphthalene oxide (Buonarati, M., Jones, A. D., and Buckpitt, A., "In vivo Metabolism of Isomeric Naphthalene Oxide Glutathione Conjugates", Drug Metab. Dispos. 18: 183-189 (1990), which is hereby incorporated by reference). Therefore Vmax's for conjugation with each enantiomer are assumed equal, and the Km for reaction with each enantiomer is assumed to be one-half of the value reported for racemic naphthalene oxide.
# human lymphocytes = experiment: Viability of human lymphocytes after 24 hr BrdU exposure and 30 sec UV light in the multicompartmental cell culture system (trypan blue); assay type: cell-based; conditions: 750 mg BrdU in 500 mL system
# Description: Approximately 14 mL of freshly drawn human blood were collected into EDTA tubes (Becton Dickinson, Lincoln Park, N.J.). To this blood sample was added 4 mL of Hanks balanced salt solution. Two and one-half mL of the blood solution was layered onto 3 mL of ficoll (Pharmacia, Piscataway, N.J.) and centrifuged at 1500 rpm for 20 min at ambient temperature. The pellet was washed in an equal volume of Hanks balanced salt solution and recentrifuged. All lymphocytes collected from the 14 mL blood sample were seeded into 100 mL of RPMI 1640 (Gibco, Grand Island, N.Y.) and placed in a Forma Scientific water-jacketed incubator (Fisher Scientific, Philadelphia, Pa.) set at 37° C. with 5 percent CO2 overnight.
# The multicompartmental cell culture system ("MCCS") of the present invention was used to expose both normal and transformed cells to an antineoplastic compound simultaneously. The volume of distribution of the system was 500 mL. Each compartment (T-flask, Becton Dickinson, Lincoln Park, N.J.) contained 75 mL of cell culture medium (RPMI 1640 as previously described). […]
# (§2) Following the 24 hr. exposure period, both human lymphocytes and rat hepatoma cells were exposed to a UV light source for 30 sec. Viable cells were determined and enumerated by trypan blue dye exclusion on a hemacytometer immediately following UV exposure.
# H4IIE cells = experiment: Viability of H4IIE hepatoma cells after 24 hr BrdU exposure and 30 sec UV light in the multicompartmental cell culture system (trypan blue); assay type: cell-based, rat
# Description: A rat hepatoma cell line, H4IIE obtained from the American Type Culture Collection (Bethesda, Md.), was cultured in RPMI Medium 1640 with 5 percent fetal calf serum, L-glutamine and antibiotics (penicillin G, streptomycin and amphotericin B) (Gibco Island, N.Y.). Cells were seeded 24 hr before the experiment. Attachment of H4IIE cells occurs several hours following seeding. Density was approximately 20 percent of confluence at the start of the experiment.
# The multicompartmental cell culture system ("MCCS") of the present invention was used to expose both normal and transformed cells to an antineoplastic compound simultaneously. The volume of distribution of the system was 500 mL. Each compartment (T-flask, Becton Dickinson, Lincoln Park, N.J.) contained 75 mL of cell culture medium (RPMI 1640 as previously described). The flow rate was set at 5 mL per min. and maintained by means of a peristaltic pump (Millipore, Bedford, Mass.). The entire system was placed inside a Forma Scientific water-jacketed incubator (Fisher Scientific, Philadelphia, Pa.) set at 37° C. with 5 percent CO2. […]
# as §2
# liver GSH = conditions: 48 hours after xylene; cited from earlier work
# lung microsomes [2] = conditions: 48 hours after xylene; cited from earlier work
# liver microsomes [3] = conditions: 48 hours after xylene; cited from earlier work
# [4] = test system: sheep liver glutathione-S-arene oxide transferase; conditions: read-out: Km for GSH, pH 7.4, cited from earlier work
# protein = experiment: Covalent binding of naphthalene oxide to protein in hepatocytes; assay type: in vitro ADME; conditions: non-enzymatic; from hepatocyte incubations
# Description: The first order rate constant for non-enzymatic rearrangement of naphthalene oxide to 1-naphthol has been reported (van Bladeran et al., 1985, supra). The rate of covalent binding was determined from data reported for incubations of hepatocytes with naphthalene oxide (Buonarati et al., 1989, supra).
# [5] = test system: lung microsomes and cytosolic protein; experiment: Conjugation of naphthalene oxide with GSH, mouse lung; assay type: in vitro ADME; conditions: assumed equal for each enantiomer
# Text: as §1
# [6] = test system: liver microsomes and cytosolic protein; experiment: Conjugation of naphthalene oxide with GSH, mouse liver; assay type: in vitro ADME; conditions: assumed equal for each enantiomer
# Text: as §1
# liver microsomes [7] = experiment: Conjugation of naphthalene oxide with GSH, rat liver; assay type: in vitro ADME; design: unit not given here; conditions: assumed equal for each enantiomer
# Text: (§3) Determination of Vmax's and Km's for naphthalene oxide production and Vmax's for GSH conjugates and dihydrodiol production in rat microsomes were done in the same way as for the mouse. Sources of data were Buckpitt, et al, 1987, supra, Hesse, S. and Mezger, M., "Involvement of Phenolic Metabolites in the Irreversible Protein-binding of Aromatic Hydrocarbons: Reactive Metabolites of [^14 C]-naphthalene and [^14 C] 1-naphthol Formed by Rat Liver Microsomas", Mol. Pharmacol. 16: 667-675 (1979) which is hereby incorporated by reference, O'Brien et al., 1985, supra, van Bladeren et al., 1985, supra, and Yost, G. S., Buckpitt, A. R., Roth, R. A., and McLemore, T. L., "Mechanisms of Lung Injury by Systematically Administered Chemicals", Toxicol. Appl. Pharmacol. 101: 179-195 (1989), which is hereby incorporated by reference.
# [8] = non-enzymatic; cited from earlier work
# lung microsomes [9] = experiment: Conjugation of naphthalene oxide with GSH, rat lung; assay type: in vitro ADME; design: unit not given here; conditions: assumed equal for each enantiomer
# Text: as §3
# [10] = 45 mg/kg, 72 hours; cited from earlier work
molecule,measurement,setting,value
"C1=C[C@@H]2O[C@@H]2c2ccccc21 [1R, 2S NO, 1R, 2S-naphthalene oxide]",Km,[1]; Mouse,50 µM
same,Km,[1]; Rat,50 µM
"O=c1[nH]c(=O)n([C@H]2C[C@H](O)[C@@H](CO)O2)cc1Br [BrdU, 5-bromo-2'-deoxyuridine]",viable human lymphocytes following UV exposure,human lymphocytes,Eighty-nine
same,viable H4IIE cells following UV exposure,"H4IIE cells; 750 mg BrdU in 500 mL system, 30 sec UV",fifty-three
same,uptake of BrdU by hepatoma cells versus lymphocytes,"H4IIE cells; MCCS, inferred from killing",greater uptake of the BrdU by the hepatoma cells than the lymphocytes
xylene,GSH levels,liver GSH,return to normal
same,"metabolism of naphthalene by lung microsomes, percent of the normal rate",lung microsomes [2],56%
same,metabolism of naphthalene by liver microsomes,liver microsomes [3],return to normal
"N[C@@H](CCC(=O)N[C@@H](CS)C(=O)NCC(=O)O)C(=O)O [GSH, glutathione]",Km,[4]; Mouse,3300 µM
same,Km,[4]; Rat,3300 µM
"C1=CC2OC2c2ccccc21 (stereo not shown) [NO, naphthalene oxide]",Binding to protein,protein,0.2 pmole/mg/min/μM NO
same,"Vmax, conjugation with GSH",[5],22.5 nmol/mg/min
same,"Vmax, conjugation with GSH",[6],150 nmol/mg/min
same,"Vmax, conjugation with GSH",liver microsomes [7],500
same,First order rate constant for rearrangement to 1-napthol,[8],0.25 min⁻¹
same,"Vmax, conjugation with GSH",lung microsomes [9],400
"C1=C[C@H]2O[C@H]2c2ccccc21 [1S, 2R NO, 1S, 2R-naphthalene oxide]",Km,[1]; Mouse,50 µM
same,Km,[1]; Rat,50 µM
"Oc1cccc2ccccc12 [1 naphthol, 1-Naphthol]",percent of dose recovered,[10],Eighty-one
